Test results taken from US20120100071A1, “SYNTHESIS AND USE OF RADIOLABELLED INSULIN ANALOGUES” (priority 2009, published 2012).

System: Akt1 phosphorylation (S473) in H4IIE cells
Assay: Akt1 activation, phospho-Akt1 (Ser473) ELISA
Type: cell-based
Details: FIG. 10c
Procedure: The insulin receptor autophosphorylation was assessed through the use of an enzyme-linked immunosorbant assay (ELISA). […] Finally, to probe the downstream signaling resulting from insulin binding, a second ELISA experiment was performed to monitor stimulation of Akt phosphorylation (S473).
Confluent H4IIE cells were serum deprived for 4 hours in […] β-mercaptoethanol and 0.25% bovine serum albumin. […] Cells were lysed in 0.5 ml 1× Cell Lysis Buffer (Cell Signaling, #7160) and cells broken open by brief sonication. Lysates were collected and centrifuged for 10 minutes at 14,000 rpm. Supernatants were recovered, diluted 1:1 with Sample Diluent, and phospho-Akt1 was quantitated in 100 μL of each diluted supernatant using the PathScan phospho-Akt1 (Ser473) ELISA (Cell Signaling, #7160).

## B^1-[Re(CO)3{bis(2-pyridylmethyl)pentanoyl-6-aminohexanoyl)}]insulin [compound 6]
  Akt phosphorylation (S473) response compared to unmodified human insulin: not significantly different
